Target: human PD-L1 / Human PD-1 (Homo sapiens (Human), UniProt Q9NZQ7)
Assay: Enzyme-Linked Immunosorbent Assay (ELISA), PD-1/PD-L1 binding
Details: plate-coated human PD-L1, biotinylated human PD-1
Summary of the method: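 Plates were coated with human PD-L1 at […]. Biotinylated human PD-1 (0.3 μg/mL) was added with 1:5 serially diluted compound for 1 h at 37 °C. Bound PD-1 was detected with streptavidin-HRP (1 h) and TMB (20 min), with absorbance read at 450 nm.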

Sequence of human PD-L1 / Human PD-1 (Q9NZQ7 19-239): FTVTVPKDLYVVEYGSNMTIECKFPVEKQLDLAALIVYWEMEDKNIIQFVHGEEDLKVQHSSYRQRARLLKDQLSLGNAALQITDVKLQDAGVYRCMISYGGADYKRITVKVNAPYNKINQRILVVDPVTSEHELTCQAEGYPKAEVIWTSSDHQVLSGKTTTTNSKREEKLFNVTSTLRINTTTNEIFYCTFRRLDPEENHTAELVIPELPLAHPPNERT

| Compound | IC50 |
| --- | --- |
| N#Cc1cncc(COc2cc(O[C@H]3CCc4c(-c5cccc(OCCCN6CC[C@H](F)C6)c5Cl)cccc43)c(Cl)cc2CN[C@@H]2CCCC[C@@H]2O)c1 | < 5 nM |
| N#Cc1cncc(-c2cc(O[C@H]3CCc4c(-c5cccc(OCCCN6CCC(F)CC6)c5Cl)cccc43)c(Cl)cc2CN[C@@H]2CCCC[C@@H]2O)c1 | 5 to 500 nM |
| CCOc1cc(O[C@H]2CCc3c(-c4cccc(OCCCN5CCC5(C)C)c4C)cccc32)c(Cl)cc1CN(C)CCC(=O)OC | 5 to 500 nM |
| Cc1c(OCCCN2CCC(C)(F)CC2)cccc1-c1cccc2c1CC[C@@H]2Oc1cc(OCc2cc(C#N)cc(C#N)c2)c(CN[C@@H]2CCC(=O)NC2)cc1Cl | 5 to 500 nM |
| Cc1c(OCCCN2CCC(F)CC2)cccc1-c1cccc2c1CC[C@@H]2Oc1cc(OCc2cc(C#N)cc(C#N)c2)c(CN[C@@H]2CCOC[C@H]2O)cc1Cl | < 5 nM |
| N#Cc1cc(C#N)cc(COc2cc(O[C@H]3CCc4c(-c5cccc(OCCCN6CCC(F)CC6)c5Cl)cccc43)c(Cl)cc2CN[C@H]2CCC(=O)NC2)c1 | 5 to 500 nM |
| Cc1c(OCCCN2CCCC[C@H]2C)cccc1-c1cccc2c1CC[C@@H]2Oc1cc(OCc2cc(C#N)cc(C#N)c2)c(CNC[C@H]2CCC(=O)N2)cc1Cl | < 5 nM |
| CCOc1cc(O[C@H]2CCc3c(-c4cccc(OCCCN5CCC5C(C)(C)C)c4C)cccc32)c(Cl)cc1CNC[C@@H]1CCC(=O)N1 (some centres unmarked) | 5 to 500 nM |
| N#Cc1cncc(COc2cc(O[C@H]3CCc4c(-c5cccc(OCCCN6CCC(F)CC6)c5Cl)cccc43)c(Cl)cc2CN2CC(C(=O)O)C2)c1 | < 5 nM |
| Cc1c(OCCCNC[C@@H](O)CO)cccc1-c1cccc2c1CC[C@@H]2Oc1cc(OCc2cncc(C#N)c2)c(CN[C@H](C(=O)O)[C@@H](C)O)cc1Cl | < 5 nM |
| CC(C)(O)[C@H](NCc1cc(Cl)c(O[C@H]2CCc3c(-c4cccc(OCCCN5CCC(F)CC5)c4Cl)cccc32)cc1OCc1cncc(C#N)c1)C(=O)O | < 5 nM |
| Cc1c(OCCCN2CCC(O)CC2)cccc1-c1cccc2c1CC[C@@H]2Oc1cc(OCc2cncc(C#N)c2)c(CN[C@H](C(=O)NS(C)(=O)=O)[C@@H](C)O)cc1Cl | < 5 nM |
| N#Cc1cncc(COc2cc(O[C@H]3CCc4c(-c5cccc(OCCCN6CCC(F)CC6)c5Cl)cccc43)c(Cl)cc2CN[C@@H]2CCOC[C@H]2O)c1 | < 5 nM |
| C[C@@](CO)(NCc1cc(Cl)c(O[C@H]2CCc3c(-c4cccc(OCCCN5CCC(O)CC5)c4Cl)cccc32)cc1OCc1cncc(C#N)c1)C(=O)O | < 5 nM |
| Cc1c(OCCCN2CCC(C)(F)CC2)cccc1-c1cccc2c1CC[C@@H]2Oc1cc(OCc2cncc(C#N)c2)c(CNC[C@@H]2CCC(=O)N2)cc1Cl | < 5 nM |
| CCOc1cc(O[C@H]2CCc3c(-c4cccc(OCCCN5CCC5(C)C)c4C)cccc32)c(Cl)cc1CN(C)CCC(=O)O | 5 to 500 nM |
| Cc1c(OCCCN2CCCC2C(C)(C)C)cccc1-c1cccc2c1CC[C@@H]2Oc1cc(OCc2cc(C#N)cc(C#N)c2)c(CN[C@H]2CCC(=O)NC2)cc1Cl (some centres unmarked) | 5 to 500 nM |
| CCOc1cc(O[C@H]2CCc3c(-c4cccc(OCCCN5CCC5(C)C)c4C)cccc32)c(Cl)cc1CN(C)CCn1nn[nH]c1=O | 5 to 500 nM |

Continued, values first:

| IC50 | Compound |
| --- | --- |
| 5 to 500 nM | Cc1c(OCCCN2CCCC[C@@H]2C)cccc1-c1cccc2c1CC[C@@H]2Oc1cc(OCc2cc(C#N)cc(C#N)c2)c(CNC[C@H]2CCC(=O)N2)cc1Cl |
| < 5 nM | C[C@@](CO)(NCc1cc(Cl)c(O[C@H]2CCc3c(-c4cccc(OCCCN5CC(O)C5)c4Cl)cc(F)cc32)cc1OCc1cncc(C#N)c1)C(=O)O |
| 5 to 500 nM | N#Cc1cncc(COc2cc(O[C@H]3CCc4c(-c5cccc(OCCCN6CC7(C6)CC(F)(F)C7)c5Cl)cccc43)c(Cl)cc2CN2CC3(C2)NC(=O)NC3=O)c1 |
| 5 to 500 nM | CCOc1cc(O[C@H]2CCc3c(-c4cccc(OCCCN5CCC5(C)C)c4C)cccc32)c(Cl)cc1CNCCn1nn[nH]c1=O |
| < 5 nM | CC1(C)CC(O)CCN1CCCOc1cccc(-c2cccc3c2CC[C@@H]3Oc2cc(OCc3cncc(C#N)c3)c(CN[C@@H]3CCCC[C@@H]3O)cc2Cl)c1Cl (some centres unmarked) |
| 5 to 500 nM | CCOc1cc(O[C@H]2CCc3c(-c4cccc(OCCCN5[C@H](C)CC[C@H]5C)c4C)cccc32)c(Cl)cc1CN1CCC(C(=O)OC)CC1 |
| < 5 nM | Cc1c(OCCCN2CC[C@H](F)C2)cccc1-c1cccc2c1CC[C@@H]2Oc1cc(OCc2cncc(C#N)c2)c(CN[C@@H]2CCCC[C@@H]2O)cc1Cl |
| 5 to 500 nM | N#Cc1cncc(COc2cc(O[C@H]3CCc4c(-c5cccc(OCCCN6CCC(F)CC6)c5Cl)cccc43)c(Cl)cc2CN[C@@H]2CCOC[C@H]2F)c1 [drawing 224] |
| < 5 nM | CC(CO)(NCc1cc(Cl)c(O[C@H]2CCc3c(-c4cccc(OCCCN5CCOCC5)c4Cl)cccc32)cc1OCc1cncc(C#N)c1)C(=O)O (some centres unmarked) |
| < 5 nM | N#Cc1cncc(COc2cc(O[C@H]3CCc4c(-c5cccc(OCCCN6CC7(C6)CC(F)(F)C7)c5Cl)cccc43)c(Cl)cc2CN[C@@H]2CCC[C@@H]2O)c1 |
| < 5 nM | CN1CCC(COc2cccc(-c3cccc4c3CC[C@@H]4Oc3cc(OCc4cncc(C#N)c4)c(CN[C@@H]4CCCC[C@@H]4O)cc3Cl)c2Cl)C1 (some centres unmarked) |
| < 5 nM | N#Cc1cncc(COc2cc(O[C@H]3CCc4c(-c5cccc(OCCCN6CCC(F)CC6)c5Cl)cccc43)c(Cl)cc2CN[C@H]2CCOC[C@@H]2O)c1 |
| 5 to 500 nM | N#Cc1cncc(COc2cc(O[C@H]3CCc4c(-c5cccc(OCCCN6CCC(F)CC6)c5C#N)cccc43)c(Cl)cc2CNCC2CCC(=O)N2)c1 (some centres unmarked) |
| < 5 nM | CCOc1cc(O[C@H]2CCc3c(-c4cccc(OCCCN5CC(O)C5)c4C)cccc32)c(Cl)cc1CN[C@@H](CO)C(=O)O |
| < 5 nM | CC(C)N1CCC(COc2cccc(-c3cccc4c3CC[C@@H]4Oc3cc(OCc4cncc(C#N)c4)c(CNC[C@@H]4CCC(=O)N4)cc3Cl)c2Cl)C1 (some centres unmarked) |
| < 5 nM | N#Cc1cncc(COc2cc(O[C@H]3CCc4c(-c5cccc(OCCCN6CC7(CC(F)C7)C6)c5Cl)cccc43)c(Cl)cc2CN[C@@H]2CCCC[C@@H]2O)c1 |
| 5 to 500 nM | Cc1c(OCCCN2CC3(CC(F)C3)C2)cccc1-c1cccc2c1CC[C@@H]2Oc1cc(OCc2cncc(C#N)c2)c(CNCC2CCC(=O)N2)cc1Cl (some centres unmarked) |
| 5 to 500 nM | CCOc1cc(O[C@H]2CCc3c(-c4cccc(OCCCN5CCC5(C)C)c4C)cccc32)c(Cl)cc1CN1CC[C@@H](C(=O)OC)C1 |
| < 5 nM | CC(C)N1CCC(COc2cccc(-c3cccc4c3CC[C@@H]4Oc3cc(OCc4cncc(C#N)c4)c(CN[C@H]4CCC(=O)NC4)cc3Cl)c2Cl)C1 (some centres unmarked) |
| < 5 nM | Cc1c(OCCCN2CCC(O)CC2)cccc1-c1cccc2c1C[C@H](F)[C@@H]2Oc1cc(OCc2cncc(C#N)c2)c(CN[C@@](C)(CO)C(=O)O)cc1Cl |
| 5 to 500 nM | N#Cc1cc(C#N)cc(COc2cc(O[C@@H]3c4cccc(-c5cccc(OCCCN6CC(F)C6)c5Cl)c4C[C@H]3F)c(Cl)cc2CNC[C@H]2CCC(=O)N2)c1 |
| < 5 nM | Cc1c(OCCCN2CC(C)(C)C2)cccc1-c1cccc2c1CC[C@@H]2Oc1cc(OCc2cc(C#N)cc(C#N)c2)c(CN[C@H]2CCC(=O)NC2)cc1Cl |
| < 5 nM | C[C@@](CO)(NCc1cc(Cl)c(O[C@H]2CCc3c(-c4cccc(OCCCN5CC(O)C5)c4Cl)cccc32)cc1-c1cncc(C#N)c1)C(=O)O |
